Drawing on patent US20110288084A1, “[4-( 1-AMINO-ETHYL) - CYCLOHEXYL ] - METHYL - AMINES AS ANTIBACTERIALS” (ASTRAZENECA AB, priority 2008, published 2011), this text covers IC50 for 17 compounds.

This assay concerns the target Escherichia coli ParC/ParE tetramer protein (Escherichia coli, UniProt P0AFI2+P20083). As to the kind of experiment: E. coli ParC/ParE ATPase inhibition assay (malachite green phosphate detection). The assay is classed as biochemical. As to conditions: ATPase activity of ParE subunit of reconstituted ParC/ParE tetramer; 0.16 mM ATP; 24 hours at room temperature. An excerpt:
The compounds of Formula (I) are of interest due to their antibacterial effects. The ability of the invention compounds disclosed herein to achieve an antibacterial effect may be evaluated with regard to their ability to inhibit the ParC enzyme of Escherichia coli using an assay based on the following protocol.
The assay utilizes the ATPase activity of the ParE subunit of reconstituted Escherichia coli ParC/ParE tetramer protein. Inhibition of ATPase activity may be monitored by reduced production of inorganic phosphate, a product of the ATPase reaction. Inorganic phosphate may be quantified using the ammonium molybdate/malachite green-based detection system. For determination of IC50 values, assays may be performed 384-well microtiter plates. Each well preferably contains a dilution range of the compound dissolved in DMSO. In addition, each well preferably contains: 20 mM Tris pH 8.0, 50 mM ammonium acetate, 0.16 mM ATP, 0.005% Brij-35, 8.0 mM magnesium chloride, 0.5 mM EDTA, 2.5% v/v glycerol, 5 mM dithiothreitol, 0.005 mg/mL sheared salmon sperm DNA, 0.5 nM E. coli ParC protein, 0.5 nM E. coli ParE protein. Final volume of assays is preferably 30 μL. Reactions may be incubated 24 hours at room temperature and then quenched with the addition of 45 μL malachite green reagent (Lanzetta, P. A., L. J. Alvarez, P. S. Reinach, and O. A. Candia (1979) Anal. Biochem. 100: 95-97) via a bulk reagent dispenser. Plates may be incubated 3-5 minutes at room temperature, and then absorbance at 650 nm may be measured using a Spectramax 384 plate reader.
When tested in an assay based on the one described above, the inhibitory activity of the following Examples was measured at the indicated IC50.

pIC50: −log10 of the molar value.

Escherichia coli ParC/ParE tetramer protein, sequence (P20083 whole entry): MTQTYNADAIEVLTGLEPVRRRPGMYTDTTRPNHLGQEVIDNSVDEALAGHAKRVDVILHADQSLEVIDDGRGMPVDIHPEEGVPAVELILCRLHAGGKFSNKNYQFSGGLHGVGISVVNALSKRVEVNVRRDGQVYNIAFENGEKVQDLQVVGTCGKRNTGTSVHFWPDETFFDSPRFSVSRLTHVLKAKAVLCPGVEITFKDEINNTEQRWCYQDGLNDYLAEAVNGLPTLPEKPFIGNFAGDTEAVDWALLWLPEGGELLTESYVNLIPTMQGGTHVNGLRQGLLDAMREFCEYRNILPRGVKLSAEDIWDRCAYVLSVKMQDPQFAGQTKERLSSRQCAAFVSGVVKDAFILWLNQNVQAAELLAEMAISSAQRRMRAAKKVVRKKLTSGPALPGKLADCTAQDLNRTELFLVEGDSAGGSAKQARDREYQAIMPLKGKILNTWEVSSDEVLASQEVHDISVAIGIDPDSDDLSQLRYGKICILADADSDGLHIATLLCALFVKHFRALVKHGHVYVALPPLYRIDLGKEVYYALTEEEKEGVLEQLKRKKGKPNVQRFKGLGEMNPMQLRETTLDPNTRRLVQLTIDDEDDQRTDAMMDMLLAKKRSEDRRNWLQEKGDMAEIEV
Escherichia coli ParC/ParE tetramer protein, sequence (P0AFI2 whole entry): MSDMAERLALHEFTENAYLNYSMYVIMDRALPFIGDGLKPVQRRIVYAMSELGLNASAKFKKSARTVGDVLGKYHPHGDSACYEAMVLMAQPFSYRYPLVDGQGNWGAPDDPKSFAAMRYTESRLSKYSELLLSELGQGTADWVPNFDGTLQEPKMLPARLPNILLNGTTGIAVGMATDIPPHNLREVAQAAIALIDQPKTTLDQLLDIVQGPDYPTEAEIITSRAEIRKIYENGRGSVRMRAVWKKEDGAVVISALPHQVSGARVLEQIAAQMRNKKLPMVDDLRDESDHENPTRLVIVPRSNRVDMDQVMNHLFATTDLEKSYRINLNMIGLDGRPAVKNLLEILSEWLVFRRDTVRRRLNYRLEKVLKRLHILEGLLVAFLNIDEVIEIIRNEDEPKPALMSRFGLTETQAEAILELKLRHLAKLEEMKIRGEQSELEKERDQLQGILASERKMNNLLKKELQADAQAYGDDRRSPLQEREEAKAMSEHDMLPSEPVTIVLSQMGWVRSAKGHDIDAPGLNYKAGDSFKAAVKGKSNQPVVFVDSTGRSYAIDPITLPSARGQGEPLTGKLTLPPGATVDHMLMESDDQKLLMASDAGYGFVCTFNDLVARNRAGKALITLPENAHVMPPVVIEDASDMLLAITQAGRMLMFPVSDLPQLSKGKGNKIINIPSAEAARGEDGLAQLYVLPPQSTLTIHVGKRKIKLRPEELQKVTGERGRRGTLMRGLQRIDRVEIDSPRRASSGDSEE

For orientation: pIC50 means the IC50 on a negative log10 scale, so that one unit is a factor of ten. A higher pIC50 goes with a low IC50. Take `COc1cnc2ccc(=O)n(CC(N)C3CCC(NCc4ccc5c(n4)NC(=O)CO5)CC3)c2c1` (racemic) [Example 1, Trans-6-((4-(1-amino-2-(7-methoxy-2-oxo-1,5-naphthyridin-1(2H)-yl)ethyl)cyclohexylamino)methyl)-2H-pyrido[3,2-b][1,4]oxazin-3(4H)-one]: the pIC50 was 7.70.

The compound `N#Cc1ccc2ccc(=O)n(CC(N)C3CCC(NCc4ccc5c(n4)NC(=O)CO5)CC3)c2c1` (racemic) [Example 4, Trans-1-(2-amino-2-(4-((3-oxo-3,4-dihydro-2H-pyrido[3,2-b][1,4]oxazin-6-yl)methylamino)cyclohexyl)ethyl)-2-oxo-1,2-dihydroquinoline-7-carbonitrile] gave a pIC50 of 8.05.

`N#Cc1ccc2ccc(=O)n(CC(N)C3CCC(NCc4ccc5c(n4)NC(=O)CS5)CC3)c2c1` (racemic) [Example 7, Trans-1-(2-amino-2-(4-((3-oxo-3,4-dihydro-2H-pyrido[3,2-b][1,4]thiazin-6-yl)methylamino)cyclohexyl)ethyl)-2-oxo-1,2-dihydroquinoline-7-carbonitrile] had a pIC50 of 7.92. This pIC50 and that of the compound before are within 0.2 log units of each other.

The compound `COc1cnc2ccc(=O)n(CC(N)C3CCC(NCc4ncc5c(n4)NC(=O)CO5)CC3)c2c1` (racemic) [Example 8, Trans-2-((4-(1-amino-2-(7-methoxy-2-oxo-1,5-naphthyridin-1(2H)-yl)ethyl)cyclohexylamino)methyl)-6H-pyrimido[5,4-b][1,4]oxazin-7(8H)-one] had a pIC50 of 7.77.

Take `NC(Cn1c(=O)cnc2ccc(F)cc21)[C@H]1CC[C@H](NCc2ccc3c(n2)NC(=O)CO3)CC1` (single isomer, unassigned) [Example 5, Trans-6-((4-(1-amino-2-(7-fluoro-2-oxoquinoxalin-1(2H)-yl)ethyl)cyclohexylamino)methyl-2H-pyrido[3,2-b][1,4]oxazin-3(4H)-one, (+) enantiomer]: the pIC50 is 7.62.

Take `NC(Cn1c(=O)cnc2ccc(F)cc21)C1CCC(NCc2ncc3c(n2)NC(=O)CO3)CC1` (single isomer, unassigned) [Example 6, Trans-2-((4-(1-amino-2-(7-fluoro-2-oxoquinoxalin-1(2H)-yl)ethyl)cyclohexylamino)methyl-6H-pyrimido[5,4-b][1,4]oxazin-7(8H)-one, (+) enantiomer]: the pIC50 is 7.82. Against the preceding compound, the pIC50 is 0.20 log units higher.

For `COc1cnc2ccc(=O)n(CC(N)[C@H]3CC[C@H](NCc4ccc5c(n4)NC(=O)CO5)CC3)c2c1` (single isomer, unassigned; enantiomer a) [Example 1(a), Trans-6-((4-(1-amino-2-(7-methoxy-2-oxo-1,5-naphthyridin-1(2H)-yl)ethyl)cyclohexylamino)methyl)-2H-pyrido[3,2-b][1,4]oxazin-3(4H)-one, enantiomer A], the pIC50 is 8.70.

In the case of `COc1ccc2ncc(=O)n(CC(N)[C@H]3CC[C@H](NCc4ccc5c(n4)NC(=O)CO5)CC3)c2c1` (single isomer, unassigned; enantiomer a) [Example 2(a), Trans-6-((4-(1-amino-2-(7-methoxy-2-oxoquinoxalin-1(2H)-yl)ethyl)cyclohexylamino)methyl)-2H-pyrido[3,2-b][1,4]oxazin-3(4H)-one, enantiomer A], the pIC50 is 7.80.

`COc1ccc2ncc(=O)n(CC(N)[C@H]3CC[C@H](NCc4ncc5c(n4)NC(=O)CO5)CC3)c2c1` (single isomer, unassigned; enantiomer a) [Example 3(a), Trans-2-((4-(1-amino-2-(7-methoxy-2-oxoquinoxalin-1(2H)-yl)ethyl)cyclohexylamino)methyl)-6H-pyrimido[5,4-b][1,4]oxazin-7(8H)-one, enantiomer A] showed a pIC50 of 7.80.

Turning to `N#Cc1ccc2ccc(=O)n(CC(N)[C@H]3CC[C@H](NCc4ccc5c(n4)NC(=O)CO5)CC3)c2c1` (single isomer, unassigned; enantiomer a) [Example 4(a), Trans-1-(2-amino-2-(4-((3-oxo-3,4-dihydro-2H-pyrido[3,2-b][1,4]oxazin-6-yl)methylamino)cyclohexyl)ethyl)-2-oxo-1,2-dihydroquinoline-7-carbonitrile, enantiomer A], the pIC50 was 7.49. This pIC50 is 0.31 log units lower than that of the compound before.

`NC(Cn1c(=O)ccc2ncc(Sc3ccccc3)cc21)C1CCC(NCc2ccc3c(n2)NC(=O)CO3)CC1` (single isomer, unassigned; enantiomer a) [Example 9, Trans-6-((4-(1-amino-2-(2-oxo-7-(phenylthio)-1,5-naphthyridin-1(2H)-yl)ethyl)cyclohexylamino)methyl)-2H-pyrido[3,2-b][1,4]oxazin-3(4H)-one, enantiomer A] had a pIC50 of 8.22.

In the case of `Cc1cc(=O)n(CC(N)C2CCC(NCc3ccc4c(n3)NC(=O)CO4)CC2)c2cc(F)ccc12` (single isomer, unassigned; enantiomer a) [Example 10, Trans-6-((4-(1-amino-2-(7-fluoro-4-methyl-2-oxoquinolin-1(2H)-yl)ethyl)cyclohexylamino)methyl)-2H-pyrido[3,2-b][1,4]oxazin-3(4H)-one, enantiomer A], the pIC50 is 8.05.

In turn, `COc1cnc2ccc(=O)n(CC(N)[C@H]3CC[C@H](NCc4ccc5c(n4)NC(=O)CO5)CC3)c2c1` (single isomer, unassigned; enantiomer b) [Example 1(b), Trans-6-((4-(1-amino-2-(7-methoxy-2-oxo-1,5-naphthyridin-1(2H)-yl)ethyl)cyclohexylamino)methyl)-2H-pyrido[3,2-b][1,4]oxazin-3(4H)-one, enantiomer B] gave a pIC50 of 7.48.

For `COc1ccc2ncc(=O)n(CC(N)[C@H]3CC[C@H](NCc4ccc5c(n4)NC(=O)CO5)CC3)c2c1` (single isomer, unassigned; enantiomer b) [Example 2(b), Trans-6-((4-(1-amino-2-(7-methoxy-2-oxoquinoxalin-1(2H)-yl)ethyl)cyclohexylamino)methyl)-2H-pyrido[3,2-b][1,4]oxazin-3(4H)-one, enantiomer B], the pIC50 is 8.40. This pIC50 is 0.92 log units higher than that of the compound before.

`COc1ccc2ncc(=O)n(CC(N)[C@H]3CC[C@H](NCc4ncc5c(n4)NC(=O)CO5)CC3)c2c1` (single isomer, unassigned; enantiomer b) [Example 3(b), Trans-2-((4-(1-amino-2-(7-methoxy-2-oxoquinoxalin-1(2H)-yl)ethyl)cyclohexylamino)methyl)-6H-pyrimido[5,4-b][1,4]oxazin-7(8H)-one, enantiomer B]: the pIC50 is 8.52.

For the compound `N#Cc1ccc2ccc(=O)n(CC(N)[C@H]3CC[C@H](NCc4ccc5c(n4)NC(=O)CO5)CC3)c2c1` (single isomer, unassigned; enantiomer b) [Example 4(b), Trans-1-(2-amino-2-(4-((3-oxo-3,4-dihydro-2H-pyrido[3,2-b][1,4]oxazin-6-yl)methylamino)cyclohexyl)ethyl)-2-oxo-1,2-dihydroquinoline-7-carbonitrile, enantiomer B], the pIC50 was 8.40.

`N#Cc1ccc2ccc(=O)n(CC(N)[C@H]3CC[C@H](NCc4ccc5c(n4)NC(=O)CS5)CC3)c2c1` (single isomer, unassigned; enantiomer b) [Example 7(b), Trans-1-(2-amino-2-(4-((3-oxo-3,4-dihydro-2H-pyrido[3,2-b][1,4]thiazin-6-yl)methylamino)cyclohexyl)ethyl)-2-oxo-1,2-dihydroquinoline-7-carbonitrile, enantiomer B] gave a negative logarithm of the IC50 (pIC50) of 8.70.
